What was measured:
E. coli = test: Ionic strength effect on antimicrobial activity; format: cell-based; conditions: 25 μM polypeptide
Protocol: For example, reducing the ionic strength from 150 mM NaCl to 50 mM NaCl reduces the number of viable bacteria after exposure by ˜10,000-fold.
Determining ionic strength effect on antimicrobial activity. E. coli were cultured overnight as described earlier. […] To control for the effects of salt alone on culture growth, the ratio of CFU in polypeptide treated cultures to that in untreated control cultures, grown in the same salt concentration but lacking any polypeptide treatment, was calculated for each salt concentration examined. These values were then normalized to the ratio calculated for CFUs measured at […], the lowest salt concentration tested, and plotted on the Y-axis versus increasing concentration of salt on the X-axis.

E. coli 0111 = test: Time course of E. coli growth in the presence of LF polypeptides; format: cell-based; conditions: 50 μM, seven hour time course, OD 600 nm
Protocol: To investigate whether regions of the molecule involved in GAG binding activity of the 6 kDa LF polypeptide (generated from pepsin digestion) are also involved in the antimicrobial activity of the 6 kDa polypeptide of the present invention, polypeptides of various lengths corresponding to the N-terminal amino acid sequence of LF were tested for the ability to inhibit the growth of E. coli 0111. Overnight cultures were grown over a seven hour time course in the presence of 50 μM of either LF, a 33-mer corresponding to amino acids 1-33 of LF, a 26-mer corresponding to […] of LF, a 27-mer corresponding to amino acids 1-27 of LF. […] This is consistent with LF and the 33-mer inhibiting bacterial growth via different mechanisms. […] The failure of the 26-mer and the 27-mer to inhibit culture growth emphasizes the importance of retaining both clusters of basic residues, at the termini of the 33-mer, for the antimicrobial functionality of polypeptides derived from the N-terminal LF sequence.
Time course of E. coli growth in the presence of LF polypeptides. E. coli cells, clinical isolate strain 0111, were obtained from ATCC. […] Culture growth was monitored spectrophotometrically by measuring optical density at 600 nm at each indicated time point.

Row | Compound | reduction of number of viable bacteria on reducing ionic strength (E. coli; from 150 mM NaCl to 50 mM NaCl) | growth inhibiting activity at elevated ionic strength (E. coli; ionic strengths equal to or greater than 200 mM NaCl) | growth of E. coli 0111 cultures (E. coli 0111)
1 | 6 kDa polypeptide: 6 kDa fragment produced by cathepsin D digestion of human LF, amino acids 1-49 of SEQ ID NO: 2 (GRRRRSVQWCAVSQPEATKCFQWQRNMRKVRGPPVSCIKRDSPIQCIQA; listed as Homo sapiens) | ~10,000 fold | essentially lost | –
2 | CSCC[C@H](NC(=O)[C@H](CC(N)=O)NC(=O)[C@H](CCCNC(=N)N)NC(=O)[C@H](CCC(N)=O)NC(=O)[C@H](Cc1c[nH]c2ccccc12)NC(=O)[C@H](CCC(N)=O)NC(=O)[C@H](Cc1ccccc1)NC(=O)[C@H](CS)NC(=O)[C@H](CCCCN)NC(=O)[C@@H](NC(=O)[C@H](C)NC(=O)[C@H](CCC(=O)O)NC(=O)[C@@H]1CCCN1C(=O)[C@H](CCC(N)=O)NC(=O)[C@H](CO)NC(=O)[C@@H](NC(=O)[C@H](C)NC(=O)[C@H](CS)NC(=O)[C@H](Cc1c[nH]c2ccccc12)NC(=O)[C@H](CCC(N)=O)NC(=O)[C@@H](N)C(C)C)C(C)C)[C@@H](C)O)C(=O)N[C@@H](CCCNC(=N)N)C(=O)N[C@@H](CCCCN)C(=O)N[C@H](C(=O)N[C@@H](CCCNC(=N)N)C(=O)NCC(=O)N1CCC[C@H]1C(=O)O)C(C)C [LF-27] | – | – | failure
